ChEMBL document CHEMBL5724914, “Linking interpersonal differences in gut microbiota composition and drug biotransformation activity” (2024)

Assay: (§1) The drug is tested on Z-029 corresponding to rat gut metagenome with ENA study accession number: PRJEB37062 and ENA sample accession number: ERS12561828 for biotransformation under anaerobic condition. The drug concentrations were measured over 9 timepoints collected between 0 and 24 hours of incubation by liquid-chromatography-coupled mass spectrometry (LC–MS)
Conditions: 2 µM
Note: call rule not given here.

Structure (SMILES) | Bacterial Biotransformation
O=P(O)(O)O.c1ccc(CN(CC2=NCCN2)c2ccccc2)cc1 [ANTAZOLINE PHOSPHATE] | Compound NOT metabolized
Cc1ccnc2c1NC(=O)c1cccnc1N2C1CC1 [NEVIRAPINE] | Compound NOT metabolized
CCc1nn(CCCN2CCN(c3cccc(Cl)c3)CC2)c(=O)n1CCOc1ccccc1 [NEFAZODONE] | Compound NOT metabolized
Cc1nc(-c2ccc(OCC(C)C)c(C#N)c2)sc1C(=O)O [FEBUXOSTAT] | Compound NOT metabolized

Assay: as §1, with “on Z-018” for “on Z-029”, “to pig” for “to rat”, “number: ERS12561817” for “number: ERS12561828”
Conditions: 2 µM

Structure (SMILES) | Bacterial Biotransformation
O=P(O)(O)O.c1ccc(CN(CC2=NCCN2)c2ccccc2)cc1 [ANTAZOLINE PHOSPHATE] | Compound NOT metabolized
Cc1ccnc2c1NC(=O)c1cccnc1N2C1CC1 [NEVIRAPINE] | Compound NOT metabolized
CCc1nn(CCCN2CCN(c3cccc(Cl)c3)CC2)c(=O)n1CCOc1ccccc1 [NEFAZODONE] | Compound NOT metabolized
Cc1nc(-c2ccc(OCC(C)C)c(C#N)c2)sc1C(=O)O [FEBUXOSTAT] | Compound metabolized

Assay: as §1, with “Z-012” for “Z-029”, “to” for “to rat gut”, “ERS12561812” for “ERS12561828”
Conditions: 2 µM

Structure (SMILES) | Bacterial Biotransformation
O=P(O)(O)O.c1ccc(CN(CC2=NCCN2)c2ccccc2)cc1 [ANTAZOLINE PHOSPHATE] | Compound NOT metabolized
Cc1ccnc2c1NC(=O)c1cccnc1N2C1CC1 [NEVIRAPINE] | Compound NOT metabolized
CCc1nn(CCCN2CCN(c3cccc(Cl)c3)CC2)c(=O)n1CCOc1ccccc1 [NEFAZODONE] | Compound NOT metabolized
Cc1nc(-c2ccc(OCC(C)C)c(C#N)c2)sc1C(=O)O [FEBUXOSTAT] | Compound NOT metabolized

Assay: as §1, with “Z-007” for “Z-029”, “ERS12561807” for “ERS12561828”
Conditions: 2 µM

Structure (SMILES) | Bacterial Biotransformation
O=P(O)(O)O.c1ccc(CN(CC2=NCCN2)c2ccccc2)cc1 [ANTAZOLINE PHOSPHATE] | Compound NOT metabolized
Cc1ccnc2c1NC(=O)c1cccnc1N2C1CC1 [NEVIRAPINE] | Compound NOT metabolized
CCc1nn(CCCN2CCN(c3cccc(Cl)c3)CC2)c(=O)n1CCOc1ccccc1 [NEFAZODONE] | Compound NOT metabolized
Cc1nc(-c2ccc(OCC(C)C)c(C#N)c2)sc1C(=O)O [FEBUXOSTAT] | Compound NOT metabolized

Assay: as §1, with “Z-005” for “Z-029”, “to” for “to rat gut”, “ERS12561805” for “ERS12561828”
Conditions: 2 µM

Structure (SMILES) | Bacterial Biotransformation
O=P(O)(O)O.c1ccc(CN(CC2=NCCN2)c2ccccc2)cc1 [ANTAZOLINE PHOSPHATE] | Compound NOT metabolized
Cc1ccnc2c1NC(=O)c1cccnc1N2C1CC1 [NEVIRAPINE] | Compound NOT metabolized
CCc1nn(CCCN2CCN(c3cccc(Cl)c3)CC2)c(=O)n1CCOc1ccccc1 [NEFAZODONE] | Compound NOT metabolized
Cc1nc(-c2ccc(OCC(C)C)c(C#N)c2)sc1C(=O)O [FEBUXOSTAT] | Compound metabolized

Assay: as §1, with “on Z-003” for “on Z-029”, “to pig” for “to rat”, “number: ERS12561803” for “number: ERS12561828”
Conditions: 2 µM

Structure (SMILES) | Bacterial Biotransformation
O=P(O)(O)O.c1ccc(CN(CC2=NCCN2)c2ccccc2)cc1 [ANTAZOLINE PHOSPHATE] | Compound metabolized
Cc1ccnc2c1NC(=O)c1cccnc1N2C1CC1 [NEVIRAPINE] | Compound NOT metabolized
CCc1nn(CCCN2CCN(c3cccc(Cl)c3)CC2)c(=O)n1CCOc1ccccc1 [NEFAZODONE] | Compound NOT metabolized
Cc1nc(-c2ccc(OCC(C)C)c(C#N)c2)sc1C(=O)O [FEBUXOSTAT] | Compound metabolized

Assay: as §1, with “on WLS-350” for “on Z-029”, “to human” for “to rat”, “number: ERS12561789” for “number: ERS12561828”
Conditions: 2 µM

Structure (SMILES) | Bacterial Biotransformation
O=P(O)(O)O.c1ccc(CN(CC2=NCCN2)c2ccccc2)cc1 [ANTAZOLINE PHOSPHATE] | Compound NOT metabolized
Cc1ccnc2c1NC(=O)c1cccnc1N2C1CC1 [NEVIRAPINE] | Compound metabolized
CCc1nn(CCCN2CCN(c3cccc(Cl)c3)CC2)c(=O)n1CCOc1ccccc1 [NEFAZODONE] | Compound NOT metabolized
Cc1nc(-c2ccc(OCC(C)C)c(C#N)c2)sc1C(=O)O [FEBUXOSTAT] | Compound metabolized

Assay: as §1, with “on WLS-240” for “on Z-029”, “to human” for “to rat”, “number: ERS12561773” for “number: ERS12561828”
Conditions: 2 µM

Structure (SMILES) | Bacterial Biotransformation
O=P(O)(O)O.c1ccc(CN(CC2=NCCN2)c2ccccc2)cc1 [ANTAZOLINE PHOSPHATE] | Compound metabolized
Cc1ccnc2c1NC(=O)c1cccnc1N2C1CC1 [NEVIRAPINE] | Compound metabolized
CCc1nn(CCCN2CCN(c3cccc(Cl)c3)CC2)c(=O)n1CCOc1ccccc1 [NEFAZODONE] | Compound metabolized
Cc1nc(-c2ccc(OCC(C)C)c(C#N)c2)sc1C(=O)O [FEBUXOSTAT] | Compound metabolized

Assay: as §1, with “on WLS-082” for “on Z-029”, “to human” for “to rat”, “number: ERS12561751” for “number: ERS12561828”
Conditions: 2 µM

Structure (SMILES) | Bacterial Biotransformation
O=P(O)(O)O.c1ccc(CN(CC2=NCCN2)c2ccccc2)cc1 [ANTAZOLINE PHOSPHATE] | Compound NOT metabolized
Cc1ccnc2c1NC(=O)c1cccnc1N2C1CC1 [NEVIRAPINE] | Compound NOT metabolized
CCc1nn(CCCN2CCN(c3cccc(Cl)c3)CC2)c(=O)n1CCOc1ccccc1 [NEFAZODONE] | Compound metabolized
Cc1nc(-c2ccc(OCC(C)C)c(C#N)c2)sc1C(=O)O [FEBUXOSTAT] | Compound metabolized

Conditions: human gut metagenome, 24 h, 2 µM

Structure (SMILES) | Bacterial Biotransformation
O=P(O)(O)O.c1ccc(CN(CC2=NCCN2)c2ccccc2)cc1 [ANTAZOLINE PHOSPHATE] | Compound NOT metabolized
Cc1ccnc2c1NC(=O)c1cccnc1N2C1CC1 [NEVIRAPINE] | Compound NOT metabolized
CCc1nn(CCCN2CCN(c3cccc(Cl)c3)CC2)c(=O)n1CCOc1ccccc1 [NEFAZODONE] | Compound NOT metabolized
Cc1nc(-c2ccc(OCC(C)C)c(C#N)c2)sc1C(=O)O [FEBUXOSTAT] | Compound metabolized

Conditions: human gut metagenome, 24 h, 2 µM
Remark: another data set of the same source

Structure (SMILES) | Bacterial Biotransformation
O=P(O)(O)O.c1ccc(CN(CC2=NCCN2)c2ccccc2)cc1 [ANTAZOLINE PHOSPHATE] | Compound NOT metabolized
Cc1ccnc2c1NC(=O)c1cccnc1N2C1CC1 [NEVIRAPINE] | Compound NOT metabolized
CCc1nn(CCCN2CCN(c3cccc(Cl)c3)CC2)c(=O)n1CCOc1ccccc1 [NEFAZODONE] | Compound NOT metabolized
Cc1nc(-c2ccc(OCC(C)C)c(C#N)c2)sc1C(=O)O [FEBUXOSTAT] | Compound metabolized

Conditions: human gut metagenome, 24 h, 2 µM
Remark: another data set of the same source

Structure (SMILES) | Bacterial Biotransformation
O=P(O)(O)O.c1ccc(CN(CC2=NCCN2)c2ccccc2)cc1 [ANTAZOLINE PHOSPHATE] | Compound NOT metabolized
Cc1ccnc2c1NC(=O)c1cccnc1N2C1CC1 [NEVIRAPINE] | Compound NOT metabolized
CCc1nn(CCCN2CCN(c3cccc(Cl)c3)CC2)c(=O)n1CCOc1ccccc1 [NEFAZODONE] | Compound NOT metabolized
Cc1nc(-c2ccc(OCC(C)C)c(C#N)c2)sc1C(=O)O [FEBUXOSTAT] | Compound metabolized

Conditions: human gut metagenome, 24 h, 2 µM
Remark: another data set of the same source

Structure (SMILES) | Bacterial Biotransformation
O=P(O)(O)O.c1ccc(CN(CC2=NCCN2)c2ccccc2)cc1 [ANTAZOLINE PHOSPHATE] | Compound NOT metabolized
Cc1ccnc2c1NC(=O)c1cccnc1N2C1CC1 [NEVIRAPINE] | Compound metabolized
CCc1nn(CCCN2CCN(c3cccc(Cl)c3)CC2)c(=O)n1CCOc1ccccc1 [NEFAZODONE] | Compound metabolized
Cc1nc(-c2ccc(OCC(C)C)c(C#N)c2)sc1C(=O)O [FEBUXOSTAT] | Compound metabolized

Conditions: human gut metagenome, 24 h, 2 µM
Remark: another data set of the same source

Structure (SMILES) | Bacterial Biotransformation
O=P(O)(O)O.c1ccc(CN(CC2=NCCN2)c2ccccc2)cc1 [ANTAZOLINE PHOSPHATE] | Compound metabolized
Cc1ccnc2c1NC(=O)c1cccnc1N2C1CC1 [NEVIRAPINE] | Compound metabolized
CCc1nn(CCCN2CCN(c3cccc(Cl)c3)CC2)c(=O)n1CCOc1ccccc1 [NEFAZODONE] | Compound metabolized
Cc1nc(-c2ccc(OCC(C)C)c(C#N)c2)sc1C(=O)O [FEBUXOSTAT] | Compound metabolized

Conditions: human gut metagenome, 24 h, 2 µM
Remark: another data set of the same source

Structure (SMILES) | Bacterial Biotransformation
O=P(O)(O)O.c1ccc(CN(CC2=NCCN2)c2ccccc2)cc1 [ANTAZOLINE PHOSPHATE] | Compound NOT metabolized
Cc1ccnc2c1NC(=O)c1cccnc1N2C1CC1 [NEVIRAPINE] | Compound NOT metabolized
CCc1nn(CCCN2CCN(c3cccc(Cl)c3)CC2)c(=O)n1CCOc1ccccc1 [NEFAZODONE] | Compound NOT metabolized
Cc1nc(-c2ccc(OCC(C)C)c(C#N)c2)sc1C(=O)O [FEBUXOSTAT] | Compound metabolized

Conditions: human gut metagenome, 24 h, 2 µM
Remark: another data set of the same source

Structure (SMILES) | Bacterial Biotransformation
O=P(O)(O)O.c1ccc(CN(CC2=NCCN2)c2ccccc2)cc1 [ANTAZOLINE PHOSPHATE] | Compound NOT metabolized
Cc1ccnc2c1NC(=O)c1cccnc1N2C1CC1 [NEVIRAPINE] | Compound metabolized
CCc1nn(CCCN2CCN(c3cccc(Cl)c3)CC2)c(=O)n1CCOc1ccccc1 [NEFAZODONE] | Compound metabolized
Cc1nc(-c2ccc(OCC(C)C)c(C#N)c2)sc1C(=O)O [FEBUXOSTAT] | Compound metabolized

Conditions: human gut metagenome, 24 h, 2 µM
Remark: another data set of the same source

Structure (SMILES) | Bacterial Biotransformation
O=P(O)(O)O.c1ccc(CN(CC2=NCCN2)c2ccccc2)cc1 [ANTAZOLINE PHOSPHATE] | Compound NOT metabolized
Cc1ccnc2c1NC(=O)c1cccnc1N2C1CC1 [NEVIRAPINE] | Compound metabolized
CCc1nn(CCCN2CCN(c3cccc(Cl)c3)CC2)c(=O)n1CCOc1ccccc1 [NEFAZODONE] | Compound NOT metabolized
Cc1nc(-c2ccc(OCC(C)C)c(C#N)c2)sc1C(=O)O [FEBUXOSTAT] | Compound metabolized

Conditions: human gut metagenome, 24 h, 2 µM
Remark: another data set of the same source

Structure (SMILES) | Bacterial Biotransformation
O=P(O)(O)O.c1ccc(CN(CC2=NCCN2)c2ccccc2)cc1 [ANTAZOLINE PHOSPHATE] | Compound NOT metabolized
Cc1ccnc2c1NC(=O)c1cccnc1N2C1CC1 [NEVIRAPINE] | Compound NOT metabolized
CCc1nn(CCCN2CCN(c3cccc(Cl)c3)CC2)c(=O)n1CCOc1ccccc1 [NEFAZODONE] | Compound NOT metabolized
Cc1nc(-c2ccc(OCC(C)C)c(C#N)c2)sc1C(=O)O [FEBUXOSTAT] | Compound NOT metabolized

Conditions: human gut metagenome, 24 h, 2 µM
Remark: another data set of the same source

Structure (SMILES) | Bacterial Biotransformation
O=P(O)(O)O.c1ccc(CN(CC2=NCCN2)c2ccccc2)cc1 [ANTAZOLINE PHOSPHATE] | Compound metabolized
Cc1ccnc2c1NC(=O)c1cccnc1N2C1CC1 [NEVIRAPINE] | Compound metabolized
CCc1nn(CCCN2CCN(c3cccc(Cl)c3)CC2)c(=O)n1CCOc1ccccc1 [NEFAZODONE] | Compound metabolized
Cc1nc(-c2ccc(OCC(C)C)c(C#N)c2)sc1C(=O)O [FEBUXOSTAT] | Compound metabolized

Conditions: human gut metagenome, 24 h, 2 µM
Remark: another data set of the same source

Structure (SMILES) | Bacterial Biotransformation
O=P(O)(O)O.c1ccc(CN(CC2=NCCN2)c2ccccc2)cc1 [ANTAZOLINE PHOSPHATE] | Compound metabolized
Cc1ccnc2c1NC(=O)c1cccnc1N2C1CC1 [NEVIRAPINE] | Compound NOT metabolized
CCc1nn(CCCN2CCN(c3cccc(Cl)c3)CC2)c(=O)n1CCOc1ccccc1 [NEFAZODONE] | Compound metabolized
Cc1nc(-c2ccc(OCC(C)C)c(C#N)c2)sc1C(=O)O [FEBUXOSTAT] | Compound metabolized
